Measured values as given in patent EP3027627B1, “2-[5-[N-(4-FLUOROPHENYL)CARBAMOYL]PYRIMIDIN-2-YLSULFANYLMETHYL]-4-(TRIFLUOROMETHOXY)PHENYL]BORONIC ACID” (Syntrix Biosystems Inc., priority 2013, dated 2015).

Experiments:
[1] = tested on: neutrophils; assay: Murine air-pouch model of inflammation; assay type: in vivo; conditions: depending on the dose given
[2] = Stability in human plasma; assay type: in vitro ADME
Experimental: The in vitro stability of SX-682 and the cogeners of Metabolic Stability Example 1 (Figure 5) were further studied in human plasma. The reactions were initiated by the addition of 5 µL of a 500 µM DMSO stock solution to 495 µL of preheated plasma solution to yield a final concentration of 5 µM. The assays were performed in a heat block at 37°C and conducted in duplicate. Samples (50 µL) were taken at 0, 30, 60, 120, 240 min and added to 150 µL acetonitrile in order to deproteinize the plasma. The samples were subjected to vortex mixing for 1 min and then centrifugation for 15 min at 14,000 rpm. The clear supernatants were analyzed by LC-MS.
The in vitro plasma half life (t½) was calculated using the expression t½ = ln(2)/b, where b is the slope found in the linear fit of the natural logarithm of the fraction remaining of the parent compound vs. incubation time.

[3] = Stability in human liver microsomes (NADPH-dependent); assay type: in vitro ADME
Source text: Liver microsomes are an in vitro model for in vivo metabolism and elimination of a drug by the liver (and gut) cytochrome P450 system. A compound's stability in liver microsomes in vitro is predictive of its metabolism and elimination in vivo. We examined the stability of SX-682 in liver microsomes together with several other cogeners to quantify the microsomal stability of SX-682 and identify potential structure-activity relationships (SAR) predictive of stability or instability (see Figure 5).
The compounds were incubated in duplicate with human liver microsomes at 37°C. The reaction contained microsomal protein in 100 mM potassium phosphate, 2 mM NADPH, 3 mM MgCl2, pH 7.4. A control was run for each compound omitting NADPH to detect NADPH-independent degradation. An aliquot was removed from each experimental and control reaction at 0, 10, 20, 30, and 60 minutes and mixed with an equal volume of ice-cold Stop Solution (0.3% acetic acid in acetonitrile containing haloperidol, diclofenac, or other internal standard). Stopped reactions were incubated for at least ten minutes at -20°C, and an additional volume of water was added. The samples were centrifuged to remove precipitated protein, and the supernatants were analyzed by LCMS/MS to quantitate the remaining compound. Data were converted to percent remaining by dividing by the time zero concentration value. Data were fit to a first-order decay model to determine half-life. Intrinsic clearance was calculated from the half-life and the protein concentrations: CLint = ln(2)/(t½ [microsomal protein]).

[4] = tested on: neutrophils; assay: Ozone rat model of pulmonary inflammation (neutrophil influx into BALF); assay type: in vivo, Sprague-Dawley rats; conditions: for influx of neutrophils into the lungs (BALF) as compared to control rats treated with vehicle only: 1 mg/kg intravenously once at t = 0, 1 ppm ozone for 4 hours, BALF at t = 24 hours, n = 4 per cohort
Experimental: SX-682 was assayed in an in vivo rat model of pulmonary inflammation. Activity in this model of pulmonary inflammation provides evidence that supports the use of SX-682 in the treatment of a number of pulmonary inflammatory diseases, including chronic obstructive pulmonary disease (COPD) and bronchopulmonary dysplasia (BPD). In this experiment, Sprague-Dawley rats (n = 4 per cohort) were dosed intravenously only once at t = 0 with either vehicle control (dimethylformamide/PEG400/saline, 40:40:20), positive inhibitor control (SX-576, 1 mg/kg) or the test compound (SX-682, 1 mg/kg). The rats were then placed in air (negative exposure group; vehicle control only) or 1 ppm ozone (positive exposure group; vehicle control, positive inhibitor control SX-576, and test compound SX-682) for 4 hours. The rats were then sacrificed at t = 24 hours, and the bronchoalveolar lavage fluid (BALF) was collected. The cells were spun down, stained with Wright-Giemsa and counted. In the negative exposure group, no neutrophils were observed when stained. In the ozone exposed rats treated with vehicle however, there was a brisk influx of neutrophils of approximately 14,000 per mL of BALF (see Figure 4).

[5] = target: T1, CXCR1 (Homo sapiens, UniProt P25024); assay: Wash-resistant inhibition of CXCL8-mediated calcium flux after inhibitor washout, CXCR1 RBL cells; assay type: cell-based; conditions: RBL cells stably transfected with CXCR1; 30 minutes incubation at 37°C with 0.4, 2, 10 µM, then washout; time points up to 12 h
T1 construct: expressed in transfected cells; host or cells: RBL cells (stably transfected)
T1 sequence (P25024 1-350): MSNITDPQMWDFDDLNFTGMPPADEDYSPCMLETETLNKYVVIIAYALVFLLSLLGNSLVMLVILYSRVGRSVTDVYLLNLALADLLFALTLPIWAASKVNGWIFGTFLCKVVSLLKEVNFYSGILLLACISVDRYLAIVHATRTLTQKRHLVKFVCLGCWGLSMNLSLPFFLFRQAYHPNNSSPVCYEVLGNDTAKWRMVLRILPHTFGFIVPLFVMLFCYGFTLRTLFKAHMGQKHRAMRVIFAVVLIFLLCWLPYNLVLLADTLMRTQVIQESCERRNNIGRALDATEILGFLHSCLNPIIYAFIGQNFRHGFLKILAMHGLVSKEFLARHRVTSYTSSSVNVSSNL
Experimental: (§1) SX-682 contains a boronic acid moiety that has the potential to form a transient covalent linkage with hydroxyl-bearing amino acid side chains in the binding site of its protein target.
(§2) In order to test this hypothesis, RBL cells (10^7 cells/mL) stably transfected with either CXCR1 or CXCR2 were (1) incubated with SX-682 at various concentrations for 30 minutes at 37°C, (2) washed and resuspended in assay buffer (RPMI/2% serum) at room temperature, and (3) assayed for CXCL8-mediated calcium response at time points up to 12 h after inhibitor washout. The concentrations of SX-682 tested were 0 (positive control), 0 (negative control), 0.4, 2, and 10 µM. At 30 minutes before each time point, a 56.25 µL aliquot of the cells were removed and loaded for 30 minutes at room temperature in the dark with FLIPR-3 reagent (262.5 µl per tube). Following FLIPR-3 incubation, cells were assayed for CXCL8 mediated intracellular calcium release as described in Pharmacology Example 1.

[6] = tested on: isolated human neutrophils; assay: Inhibition of CXCL8-mediated intracellular calcium release, isolated human neutrophils; assay type: cell-based; conditions: Neutrophil; human neutrophils (Human PMNs); CXCL8 25 nM; mean ± SE, n = 4
Experimental: (§3) Briefly, cells (either isolated human neutrophils or RBL cells stably transfected with either CXCR1 or CXCR2) were suspended in HBSS^- (without Ca^2+ and Mg^2+) containing 10 mM HEPES and FLIPR Calcium 3 dye (3.1 x 10^7 cells in total volume 1.7 mL). Cells were aliquoted (200 µL of the cell suspension per tube, 8 tubes total) and 2 µL of the designated compound (with appropriate dilutions) were added to each of 6 tubes. As controls, 2 µL of DMSO (1% final concentration) were added to 2 other tubes. Cells were incubated for 30 min at 37 °C. After dye loading, tubes were centrifuged at 6,000 rpm for 1 min, supernatant was removed and the cell pellet was re-suspended in 200 µL of HBSS^+ (with Ca^2+ and Mg^2+) containing 10 mM HEPES. […] The cell suspension was aliquoted into a 96-well Reading Plate (Coming) in a volume of 90 µL (10^5 cells/well). […] After 15 sec of reading the basal level of fluorescence by FlexStation II, 10 µL of CXCL8 or HBSS^-were automatically transferred from the Compound Plate into the Reading Plate (final concentration of CXCL8 was 25 nM). Changes in fluorescence were monitored (λex = 485 nm, λem = 525 nm) every 5 s for 240 to 500 s at room temperature.
(§4) The maximum change in fluorescence, expressed in arbitrary units over baseline (Max-Min), was used to determine the CXCL8 response. […]

[7] = target: T1, CXCR1; assay: Inhibition of CXCL8-mediated intracellular calcium release, RBL cells stably transfected with CXCR1; assay type: cell-based; conditions: CXCL8 25 nM, mean ± SE, n = 4
Experimental: as §3, §4

[8] = target: T2, CXCR2 (Homo sapiens, UniProt P25025); assay: Inhibition of CXCL8-mediated intracellular calcium release, RBL cells stably transfected with CXCR2; assay type: cell-based; conditions: CXCL8 25 nM, mean ± SE, n = 4
T2 construct: expressed in transfected cells; host or cells: RBL cells (stably transfected)
T2 sequence (P25025 1-360): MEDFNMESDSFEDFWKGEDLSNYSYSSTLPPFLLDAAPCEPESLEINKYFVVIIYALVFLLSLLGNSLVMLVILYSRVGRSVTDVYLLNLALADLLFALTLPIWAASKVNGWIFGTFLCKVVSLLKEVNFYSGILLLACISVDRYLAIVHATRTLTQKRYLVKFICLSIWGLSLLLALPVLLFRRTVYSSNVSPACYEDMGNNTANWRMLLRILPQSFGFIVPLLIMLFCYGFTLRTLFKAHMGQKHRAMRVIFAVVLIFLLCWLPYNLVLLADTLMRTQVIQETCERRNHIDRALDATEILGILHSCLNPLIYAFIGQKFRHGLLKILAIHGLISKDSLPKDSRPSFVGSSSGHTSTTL
Experimental: as §3, §4

[9] = target: T2, CXCR2; assay: Wash-resistant inhibition of CXCL8-mediated calcium flux after inhibitor washout, CXCR2 RBL cells; assay type: cell-based; conditions: RBL cells stably transfected with CXCR2; 30 minutes incubation at 37°C with 0.4, 2, 10 µM, then washout; time points up to 12 h
Experimental: as §1, §2

[10] = 5 µM, incubation at 37°C, LC-MS/MS detection
[11] = 37°C, 2 mM NADPH, pH 7.4, first-order decay model

SMILES | activity on neutrophils in vivo [1] | t½ [2, 10] | fold reduction in plasma half-life ([2]; structural comparison with sulfur / F3CO-bearing cogeners) | t½ (Half-life) [3, 11] | influx of neutrophils into the lungs (BALF) as compared to control rats treated with vehicle only [4] | inhibition of CXCL8-mediated intracellular calcium flux sustained after washout [5] | IC50 [6] | IC50 [7] | IC50 [8] | inhibition of CXCL8-mediated intracellular calcium flux sustained after washout [9] | half-life at 5 µM ([2]; 5 µM, incubation at 37°C, LC-MS/MS detection, read-out: t½) | inhibition of neutrophil chemotaxis, comparison of the two inhibitors tested ([4]; SX-682 vs SX-576, each 1 mg/kg intravenously, ozone exposed rats) | inhibition of neutrophil influx into the BALF sustained after a single dose ([4]; single dose of 1 mg/kg intravenously, ozone exposed rats) | fold larger half life than SX-671 or SX-576 [3] | half-life ([3]; 37°C, 2 mM NADPH, pH 7.4, first-order decay model, read-out: t½ (Half-life))
O=C(Nc1ccc(F)cc1)c1ccc(SCc2ccccc2B(O)O)nc1 [SX-517] | both inhibitory and agonist activity on neutrophils were achieved | 1.88 h | 5 fold | 6.75 h |  |  |  |  |  |  |  |  |  |  | 
O=C(Nc1ccc(F)cc1)c1ccc(SCc2cc(OC(F)(F)F)ccc2B(O)O)nc1 [SX-576, reference compound] | both inhibitory and agonist activity on neutrophils were achieved | 8.88 h |  | 0.833 h | significantly decreased the influx of neutrophils |  |  |  |  |  |  |  |  |  | 
O=C(Nc1ccc(F)cc1)c1cnc(SCc2cc(OC(F)(F)F)ccc2B(O)O)nc1 [SX-682, 2-(2-Boronic acid-5-trifluoromethoxy-benzylsulfanyl)-pyrimidine-5-carboxylic acid (4-fluoro-phenyl)-amide] |  |  |  |  | significantly decreased the influx of neutrophils | at least 12 hours | 55 ± 6 nM | 42 ± 3 nM | 20 ± 2 nM | at least 12 hours | 11.6 h | markedly more robust inhibition of neutrophil chemotaxis | 24 h | 6 fold | 5.42 h
